Key:
[1] = molecular target: GDP-bound NRAS wild-type protein (Homo sapiens, UniProt P01111); assay: Binding to NRAS by surface plasmon resonance (SPR), KD and KD ratio to KRAS; conditions: ratio of the KD value with respect to GDP-bound NRAS wild-type protein to the KD value with respect to KRAS
Summary of the method: (§1)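 Affinity is measured by surface plasmon resonance at 30°C against captured, GDP-loaded RAS carrying a biotinylated Avi tag. Compounds are titrated by single-cycle kinetics, and KD comes from a 1:1 fit.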

HRAS wild-type protein = HRAS wild-type protein (Homo sapiens, UniProt P01112); assay: Binding to HRAS by surface plasmon resonance (SPR), KD and KD ratio to KRAS; conditions: ratio of the KD value with respect to HRAS wild-type protein to the KD value with respect to KRAS
Summary of the method: as §1

[2] = system: human lung cancer strain NCI-H441; assay type: cell-based
Summary of the method: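 Readout: […] after the ATP-based reagent. Compound: serial dilutions in dimethyl sulfoxide.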

Sequence of GDP-bound NRAS wild-type protein (P01111 whole entry): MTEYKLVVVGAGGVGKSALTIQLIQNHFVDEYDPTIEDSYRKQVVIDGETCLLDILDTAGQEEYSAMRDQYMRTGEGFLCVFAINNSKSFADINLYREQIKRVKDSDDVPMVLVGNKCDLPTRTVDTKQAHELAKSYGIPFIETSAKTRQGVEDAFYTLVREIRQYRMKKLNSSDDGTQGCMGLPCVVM
Sequence of HRAS wild-type protein (P01112 whole entry): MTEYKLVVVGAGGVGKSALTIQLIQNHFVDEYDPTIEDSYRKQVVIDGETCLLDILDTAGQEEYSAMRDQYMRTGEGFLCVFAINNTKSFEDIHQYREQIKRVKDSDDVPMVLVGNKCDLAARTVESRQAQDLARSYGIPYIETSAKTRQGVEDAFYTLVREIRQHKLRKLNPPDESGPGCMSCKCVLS

| Structure (SMILES) | NRAS /KRAS [1] | HRAS /KRAS (HRAS wild-type protein) | IC50 [2] |
| --- | --- | --- | --- |
| CC[C@H](C)[C@@H]1NC(=O)[C@H](CC(C)C)N(C)C(=O)C[C@@H](C(=O)N(C)C)N(C)C(=O)[C@H](C2CCCC2)N(C)C(=O)C2(CCC2)NC(=O)[C@@H]2CCCN2C(=O)[C@H](CCc2cc(F)c(C(F)(F)F)c(F)c2)NC(=O)CN(C)C(=O)[C@H](Cc2ccc(C(F)(F)F)cc2)N2CCCC[C@@H](C2=O)N(C)C(=O)CN(C)C1=O [PP0574] | C (A compound having a KD ratio of 0.1 or more and less than 3 is denoted as C) | B (a compound having 3 or more and less than 10 is denoted as B) | 3.1 nM |
| CC[C@H](C)[C@@H]1NC(=O)[C@H](CC(C)C)N(C)C(=O)C[C@@H](C(=O)N2CCOCC2)N(C)C(=O)[C@H](C2CCCC2)N(C)C(=O)C2(CCC2)NC(=O)[C@@H]2CC(F)(F)CN2C(=O)[C@H](CCc2cc(F)c(C(F)(F)F)c(F)c2)NC(=O)CN(C)C(=O)[C@H](Cc2ccc(C(F)(F)F)cc2)N2CCCC[C@@H](C2=O)N(C)C(=O)CN(C)C1=O [PP0575] | B (a compound having 3 or more and less than 10 is denoted as B) | B (a compound having 3 or more and less than 10 is denoted as B) | 3.2 nM |
| CC[C@H](C)[C@@H]1NC(=O)[C@H](CC(C)C)N(C)C(=O)C[C@@H](C(=O)N(C)C)N(C)C(=O)[C@H](C2CCCC2)N(C)C(=O)C2(CCCC2)NC(=O)[C@@H]2CC(F)(F)CN2C(=O)[C@H](CCc2cc(F)c(C(F)(F)F)c(F)c2)NC(=O)CN(C)C(=O)[C@H](Cc2ccc(C(F)(F)F)cc2)N2CCCC[C@@H](C2=O)N(C)C(=O)CN(C)C1=O [PP0576] | C (A compound having a KD ratio of 0.1 or more and less than 3 is denoted as C) | B (a compound having 3 or more and less than 10 is denoted as B) | 2.4 nM |
| CC[C@H](C)[C@@H]1NC(=O)[C@H](CC(C)C)N(C)C(=O)C[C@@H](C(=O)N(C)C)N(C)C(=O)[C@H](C2CCCC2)N(C)C(=O)C2(CCC2)NC(=O)[C@@H]2CC(F)(F)CN2C(=O)[C@H](CCc2cc(F)c(C(F)(F)F)c(F)c2)NC(=O)CN(C)C(=O)[C@H](Cc2ccc(C(F)(F)F)cc2)N2CCCC[C@@H](C2=O)N(C)C(=O)CN(C)C1=O [PP0577] | C (A compound having a KD ratio of 0.1 or more and less than 3 is denoted as C) | C (A compound having a KD ratio of 0.1 or more and less than 3 is denoted as C) | 2.4 nM |
| CCO[C@@H]1C[C@H]2C(=O)NC3(CCC3)C(=O)N(C)[C@@H](C3CCCC3)C(=O)N(C)[C@H](C(=O)N3CCOCC3)CC(=O)N(C)[C@@H](CC(C)C)C(=O)N[C@@H]([C@@H](C)CC)C(=O)N(C)CC(=O)N(C)[C@H]3CCCCN(C3=O)[C@@H](Cc3ccc(C(F)(F)F)cc3)C(=O)N(C)CC(=O)N[C@@H](CCc3cc(F)c(C(F)(F)F)c(F)c3)C(=O)N2C1 [PP0578] | B (a compound having 3 or more and less than 10 is denoted as B) | B (a compound having 3 or more and less than 10 is denoted as B) | 2.2 nM |
| CCO[C@@H]1C[C@H]2C(=O)NC3(CCCC3)C(=O)N(C)[C@@H](C3CCCC3)C(=O)N(C)[C@H](C(=O)N(C)C)CC(=O)N(C)[C@@H](CC(C)C)C(=O)N[C@@H]([C@@H](C)CC)C(=O)N(C)CC(=O)N(C)[C@H]3CCCCN(C3=O)[C@@H](Cc3ccc(C(F)(F)F)cc3)C(=O)N(C)CC(=O)N[C@@H](CCc3cc(F)c(C(F)(F)F)c(F)c3)C(=O)N2C1 [PP0579] | C (A compound having a KD ratio of 0.1 or more and less than 3 is denoted as C) | B (a compound having 3 or more and less than 10 is denoted as B) | 2.4 nM |
| CCO[C@@H]1C[C@H]2C(=O)NC3(CCC3)C(=O)N(C)[C@@H](C3CCCC3)C(=O)N(C)[C@H](C(=O)N(C)C)CC(=O)N(C)[C@@H](CC(C)C)C(=O)N[C@@H]([C@@H](C)CC)C(=O)N(C)CC(=O)N(C)[C@H]3CCCCN(C3=O)[C@@H](Cc3ccc(C(F)(F)F)cc3)C(=O)N(C)CC(=O)N[C@@H](CCc3cc(F)c(C(F)(F)F)c(F)c3)C(=O)N2C1 [PP0580] | C (A compound having a KD ratio of 0.1 or more and less than 3 is denoted as C) | C (A compound having a KD ratio of 0.1 or more and less than 3 is denoted as C) | 1.8 nM |
| CC[C@H](C)[C@@H]1NC(=O)[C@H](C)N(C)C(=O)C[C@@H](C(=O)N(C)C)N(C)C(=O)[C@H](C2CCCC2)N(C)C(=O)C2(CCC2)NC(=O)[C@@H]2CCCN2C(=O)[C@H](CCc2cc(F)c(C(F)(F)F)c(F)c2)NC(=O)CN(C)C(=O)[C@H](Cc2ccc(C(F)(F)F)cc2)N2CCCC[C@@H](C2=O)N(C)C(=O)CN(C)C1=O [PP0581] | C (A compound having a KD ratio of 0.1 or more and less than 3 is denoted as C) | B (a compound having 3 or more and less than 10 is denoted as B) | 8 nM |
| CC[C@H](C)[C@@H]1NC(=O)[C@H](C)N(C)C(=O)C[C@@H](C(=O)N2CCOCC2)N(C)C(=O)[C@H](C2CCCC2)N(C)C(=O)C2(CCC2)NC(=O)[C@@H]2CC(F)(F)CN2C(=O)[C@H](CCc2cc(F)c(C(F)(F)F)c(F)c2)NC(=O)CN(C)C(=O)[C@H](Cc2ccc(C(F)(F)F)cc2)N2CCCC[C@@H](C2=O)N(C)C(=O)CN(C)C1=O [PP0582] | C (A compound having a KD ratio of 0.1 or more and less than 3 is denoted as C) | B (a compound having 3 or more and less than 10 is denoted as B) | 9.6 nM |
| CC[C@H](C)[C@@H]1NC(=O)[C@H](C)N(C)C(=O)C[C@@H](C(=O)N(C)C)N(C)C(=O)[C@H](C2CCCC2)N(C)C(=O)C2(CCCC2)NC(=O)[C@@H]2CC(F)(F)CN2C(=O)[C@H](CCc2cc(F)c(C(F)(F)F)c(F)c2)NC(=O)CN(C)C(=O)[C@H](Cc2ccc(C(F)(F)F)cc2)N2CCCC[C@@H](C2=O)N(C)C(=O)CN(C)C1=O [PP0583] | C (A compound having a KD ratio of 0.1 or more and less than 3 is denoted as C) | C (A compound having a KD ratio of 0.1 or more and less than 3 is denoted as C) | 10.3 nM |
| CC[C@H](C)[C@@H]1NC(=O)[C@H](C)N(C)C(=O)C[C@@H](C(=O)N(C)C)N(C)C(=O)[C@H](C2CCCC2)N(C)C(=O)C2(CCC2)NC(=O)[C@@H]2CC(F)(F)CN2C(=O)[C@H](CCc2cc(F)c(C(F)(F)F)c(F)c2)NC(=O)CN(C)C(=O)[C@H](Cc2ccc(C(F)(F)F)cc2)N2CCCC[C@@H](C2=O)N(C)C(=O)CN(C)C1=O [PP0584] | C (A compound having a KD ratio of 0.1 or more and less than 3 is denoted as C) | C (A compound having a KD ratio of 0.1 or more and less than 3 is denoted as C) | 7 nM |
| CCO[C@@H]1C[C@H]2C(=O)NC3(CCC3)C(=O)N(C)[C@@H](C3CCCC3)C(=O)N(C)[C@H](C(=O)N3CCOCC3)CC(=O)N(C)[C@@H](C)C(=O)N[C@@H]([C@@H](C)CC)C(=O)N(C)CC(=O)N(C)[C@H]3CCCCN(C3=O)[C@@H](Cc3ccc(C(F)(F)F)cc3)C(=O)N(C)CC(=O)N[C@@H](CCc3cc(F)c(C(F)(F)F)c(F)c3)C(=O)N2C1 [PP0585] | B (a compound having 3 or more and less than 10 is denoted as B) | B (a compound having 3 or more and less than 10 is denoted as B) | 6.2 nM |
| CCO[C@@H]1C[C@H]2C(=O)NC3(CCCC3)C(=O)N(C)[C@@H](C3CCCC3)C(=O)N(C)[C@H](C(=O)N(C)C)CC(=O)N(C)[C@@H](C)C(=O)N[C@@H]([C@@H](C)CC)C(=O)N(C)CC(=O)N(C)[C@H]3CCCCN(C3=O)[C@@H](Cc3ccc(C(F)(F)F)cc3)C(=O)N(C)CC(=O)N[C@@H](CCc3cc(F)c(C(F)(F)F)c(F)c3)C(=O)N2C1 [PP0586] | C (A compound having a KD ratio of 0.1 or more and less than 3 is denoted as C) | B (a compound having 3 or more and less than 10 is denoted as B) | 5.3 nM |
| CCO[C@@H]1C[C@H]2C(=O)NC3(CCC3)C(=O)N(C)[C@@H](C3CCCC3)C(=O)N(C)[C@H](C(=O)N(C)C)CC(=O)N(C)[C@@H](C)C(=O)N[C@@H]([C@@H](C)CC)C(=O)N(C)CC(=O)N(C)[C@H]3CCCCN(C3=O)[C@@H](Cc3ccc(C(F)(F)F)cc3)C(=O)N(C)CC(=O)N[C@@H](CCc3cc(F)c(C(F)(F)F)c(F)c3)C(=O)N2C1 [PP0587] | C (A compound having a KD ratio of 0.1 or more and less than 3 is denoted as C) | C (A compound having a KD ratio of 0.1 or more and less than 3 is denoted as C) | 5.1 nM |
| CC[C@H](C)[C@@H]1NC(=O)[C@H](CC(C)C)N(CC)C(=O)C[C@@H](C(=O)N2CCOCC2)N(C)C(=O)[C@H](C2CCCC2)N(C)C(=O)C2(CCCC2)NC(=O)[C@@H]2CCCN2C(=O)[C@H](CCc2cc(F)c(C(F)(F)F)c(F)c2)NC(=O)CN(C)C(=O)[C@H](Cc2ccc(C(F)(F)F)cc2)N2CCCC[C@@H](C2=O)N(C)C(=O)CN(C)C1=O [PP0588] | B (a compound having 3 or more and less than 10 is denoted as B) | B (a compound having 3 or more and less than 10 is denoted as B) | 16.7 nM |
| CC[C@H](C)[C@@H]1NC(=O)[C@H](CC(C)C)N(C)C(=O)C[C@@H](C(=O)N2CCOCC2)N(C)C(=O)[C@H](C2CCCC2)N(C)C(=O)C2(CCCC2)NC(=O)[C@H](C)N(CC)C(=O)[C@H](CCc2cc(F)c(C(F)(F)F)c(F)c2)NC(=O)CN(C)C(=O)[C@H](Cc2ccc(C(F)(F)F)cc2)N2CCCC[C@@H](C2=O)N(C)C(=O)CN(C)C1=O [PP0589] | B (a compound having 3 or more and less than 10 is denoted as B) | B (a compound having 3 or more and less than 10 is denoted as B) | 24.8 nM |

From patent publication EP4603105A1, “PHARMACEUTICAL COMPOSITION CONTAINING CYCLIC COMPOUND HAVING SELECTIVE KRAS INHIBITORY EFFECT AGAINST HRAS AND NRAS” (CHUGAI SEIYAKU KABUSHIKI KAISHA, priority 2022, dated 2024)
